Measurements as given in patent publication US6737383B1, “Herbicidal oxadiazolidines” (priority 1999, dated 2004).

Experiments:
scentless chamomile = assay: Test E scentless chamomile; type: in vivo, Matricaria inodora; conditions: Preemergence
purple nutsedge = assay: Test D purple nutsedge; type: in vivo, Cyperus rotundus; conditions: Postemergence, 0 to 100 scale
Green foxtail [1] = assay: Test D green foxtail; type: in vivo; conditions: Postemergence, 0 to 100 scale, 0 no injury, 100 complete control
common groundsel = assay: Test D common groundsel; type: in vivo, Senecio vulgaris; conditions: Postemergence, 0 to 100 scale
sandbur = assay: Test D sandbur; type: in vivo, Cenchrus echinatus; conditions: Postemergence, 0 to 100 scale
common ragweed = assay: Test D common ragweed; type: in vivo, Ambrosia elatior; conditions: Postemergence, 0 to 100 scale
Green foxtail [2] = assay: Test D green foxtail; type: in vivo; conditions: Rate 250 g/ha; Postemergence; 0 to 100 scale
[3] = system: Digitaria sanguinalis (DIGSA); assay: Test F preemergence, alone and in mixture with rimsulfuron, DIGSA; type: in vivo; conditions: 21 days after treatment, 0-100 scale
Procedure: (§1) Abutilon theophrasti (ABUTH), Chenopodium album (CHEAL), Amaranthus rudis (AMATA), Setaria faberii (SETFA), Panicum dichotomiflorum (PANDI), and Digitaria sanguinalis (DIGSA) were grown from seed in pots of an artificial potting mixture in a greenhouse. Compounds of the present invention were applied at 70 and 105 g ai/ha preemergence. Rimsulfuron was applied at 8.8 and 17.5 g ai/ha. Mixtures of the compounds of the present invention and rimsulfuron were also applied.
(§2) Following application, the plants were maintained by watering as needed. A fertilizer solution of Peter's 20-20-20 (10 pounds/5 gallons of water) plus Sprint 330, a Iron Chelate micronutrient, (113.5 grams/5 gallons of water) was injected into the water with an Anderson fertilizer injection system to provide approximately 219 ppm of nitrogen with each watering. Artificial lighting was used to supplement natural light to produce a 14 hour photoperiod and: an additional one hour light period was used between 1:00 am to 2:00 am for a night interruption. Greenhouse temperatures were targeted for 27° C. in the day and 21° C. at night. At 21 days after treatment, all plants were evaluated for injury as compared to control plants that were sprayed only with non-phytotoxic solvent.
(§3) Colby's equation was used to calculate the expected additive herbicidal effect of the mixtures of Compound 21 and the mixture partners listed above. […]

common pursiane = assay: Test D common purslane; type: in vivo, Portulaca oleracea; conditions: Postemergence, 0 to 100 scale
Johnson grass = assay: Test D Johnson grass; type: in vivo, Sorghum halepense; conditions: Postemergence, 0 to 100 scale
[4] = system: Panicum dichotomiflorum (PANDI); assay: Test F preemergence, alone and in mixture with rimsulfuron, PANDI; type: in vivo; conditions: 21 days after treatment, 0-100 scale
Procedure: as §1, §2, §3

windgrass = assay: Test E windgrass; type: in vivo, Apera spica-venti; conditions: Postemergence
Procedure: Compounds evaluated in this test were formulated in a non-phytotoxic solvent mixture which included a surfactant and applied to plants that were in the 1- to 4-leaf stage (postemergence application). A mixture of sandy loam soil and greenhouse potting mix in a 60:40 ratio was used for the postemergence test.
Plantings of these crops and weed species were adjusted to produce plants of appropriate size for the postemergence test. All plant species were grown using normal greenhouse practices. […]
Treated plants and untreated controls were maintained in a greenhouse for approximately 21 to 28 days, after which all treated plants were compared to untreated controls and visually evaluated. […]

Spanishneedles = assay: Test D Spanishneedles; type: in vivo, Bidens bipinnata; conditions: Postemergence, 0 to 100 scale
[5] = system: Chenopodium album (CHEAL); assay: Test F preemergence, alone and in mixture with rimsulfuron, CHEAL; type: in vivo; conditions: 21 days after treatment, 0-100 scale
Procedure: as §1, §2, §3

Green foxtail [6] = assay: Test D green foxtail; type: in vivo; conditions: Postemergence, 0 to 100 scale, 0 no injury, 100 complete control; remark: listed apart in the source
surinam grass = assay: Test D surinam grass; type: in vivo, Brachiaria decumbens; conditions: Postemergence, 0 to 100 scale
[7] = Rate 16 g/ha, 0 no injury, 100 complete control
[8] = Rate 32 g/ha, 0 no injury, 100 complete control
[9] = Rate 64 g/ha, 0 no injury, 100 complete control
[10] = Rate 125 g/ha, 0 no injury, 100 complete control
[11] = Alone: Cmpd. rate 70, Rimsulfuron 0
[12] = Alone: Cmpd. rate 105, Rimsulfuron 0

CC(C)N(C(=O)n1oc(=O)n(C(C)C)c1=O)c1ccc(Cl)cc1 [Compound 114]
Plant response rating, Scentless chamo (scentless chamomile; Rate 125 g/ha, 0 to 100 scale (0 no effect, 100 complete control)): 30
Plant response rating, Scentless chamo (scentless chamomile; Rate 250 g/ha, 0 to 100 scale): 30
Plant response rating, Scentless chamo (scentless chamomile; Rate 500 g/ha, 0 to 100 scale where 0 is no effect and 100 is complete control): 10

CC(C)N(C(=O)n1oc(=O)n(C(C)C)c1=O)c1ccc(F)cc1 [Compound 131]
Plant response rating, Purple nutsedge (purple nutsedge; [7]): 0
Plant response rating, Purple nutsedge (purple nutsedge; [8]): 0
Purple nutsedge plant response rating (purple nutsedge; [9]): 0
Purple nutsedge plant response rating (purple nutsedge; [10]): 30
Plant response rating, Purple nutsedge (purple nutsedge; Rate 250 g/ha): 100
Plant response rating, Green foxtail (Green foxtail [1]; Rate 16 g/ha): 0
Plant response rating, Green foxtail (Green foxtail [1]; Rate 32 g/ha): 60
Plant response rating, Com. groundsel (common groundsel; [7]): 90
Plant response rating, Com. groundsel (common groundsel; [8]): 100
Plant response rating, Com. groundsel (common groundsel; [9]): 100
Plant response rating, Com. groundsel (common groundsel; [10]): 100
Plant response rating, Com. groundsel (common groundsel; Rate 250 g/ha): 100
Plant response rating, Sandbur (sandbur; [7]): 0
Plant response rating, Sandbur (sandbur; [8]): 0
Sandbur plant response rating (sandbur; [9]): 100
Sandbur plant response rating (sandbur; [10]): 100
Plant response rating, Sandbur (sandbur; Rate 250 g/ha): 100
Plant response rating, C. ragweed (common ragweed; [7]): 0
Plant response rating, C. ragweed (common ragweed; [8]): 0
Plant response rating, C. ragweed (common ragweed; [9]): 0
Plant response rating, C. ragweed (common ragweed; [10]): 90
Plant response rating, C. ragweed (common ragweed; Rate 250 g/ha): 100
Plant response rating, Green foxtail (Green foxtail [2]): 100
DIGSA Observed [3, 11]: 100%
DIGSA Observed [3, 12]: 100%
Plant response rating, C. purslane (common pursiane; [7]): 0
Plant response rating, C. purslane (common pursiane; [8]): 0
Plant response rating, C. purslane (common pursiane; [9]): 0
Plant response rating, C. purslane (common pursiane; [10]): 0
Plant response rating, C. purslane (common pursiane; Rate 250 g/ha): 0
Plant response rating Johnsongrass (Johnson grass; [7]): 0
Plant response rating Johnsongrass (Johnson grass; [8]): 0
Plant response rating Johnsongrass (Johnson grass; [9]): 30
Plant response rating Johnsongrass (Johnson grass; [10]): 60
Plant response rating Johnsongrass (Johnson grass; Rate 250 g/ha): 100
PANDI Observed [4, 11]: 100%
PANDI Observed [4, 12]: 95%
Plant response rating, Windgrass (windgrass; Rate 62 g/ha, 0 to 100 scale): 85
Windgrass plant response rating (windgrass; Rate 250 g/ha, 0 to 100 scale where 0 is no effect and 100 is complete control): 90
Plant response rating, Spanishneedles (Spanishneedles; [7]): 0
Plant response rating, Spanishneedles (Spanishneedles; [8]): 0
Spanishneedles plant response rating (Spanishneedles; [9]): 0
Spanishneedles plant response rating (Spanishneedles; [10]): 70
Plant response rating, Spanishneedles (Spanishneedles; Rate 250 g/ha): 60
CHEAL Observed [5, 11]: 60%
CHEAL Observed [5, 12]: 95%
Green foxtail plant response rating (Green foxtail [6]; Rate 64 g/ha): 100
Green foxtail plant response rating (Green foxtail [6]; Rate 125 g/ha): 100
Plant response rating, Surinam grass (surinam grass; [7]): 0
Plant response rating, Surinam grass (surinam grass; [8]): 40
Surinam grass plant response rating (surinam grass; [9]): 60
Surinam grass plant response rating (surinam grass; [10]): 100
Plant response rating, Surinam grass (surinam grass; Rate 250 g/ha): 100
